The values below come from US20250115636A1, “PEPTIDOMIMETIC INHIBITORS OF PROTEIN N-TERMINAL […] 1, COMPOSITION, AND METHOD OF USE” (Purdue Research Foundation, priority 2022, published 2025).

Where two headings read alike, the source gives them in different places.

The target in data set [1] is T1, NTMT1 (Homo sapiens, UniProt Q9BV86).
T1 construct: made in house
T1 sequence (Q9BV86 1-223): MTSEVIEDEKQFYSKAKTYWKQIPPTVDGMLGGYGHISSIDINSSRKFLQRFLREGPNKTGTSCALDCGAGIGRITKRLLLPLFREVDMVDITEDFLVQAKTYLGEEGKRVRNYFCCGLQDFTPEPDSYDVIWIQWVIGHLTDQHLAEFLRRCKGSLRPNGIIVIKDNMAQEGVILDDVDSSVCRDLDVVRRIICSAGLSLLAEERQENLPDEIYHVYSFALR
Briefly: NTMT1 biochemical assay (SAHH-coupled fluorescence assay).

Another data set deals with HCT116 cells. Briefly: Cytotoxicity / cell viability, alamarBlue (resazurin) assay. Format: cell-based. To be noted: Homo sapiens, HCT-116, normal HCT116 cells. From the text:
To test this hypothesis, compound 1a was selected to evaluate its effects on both wild-type and NTMT1 knockout HCT116 cells (FIG. 3B).
On the technique in general: Resazurin is reduced to fluorescent resorufin, in cell work by metabolically active cells.

The next data set can be described thus: in vitro. To be noted: PAMPA. How it is done:
The stock solutions in 10 mM DMSO was diluted with PBS to a final concentration of 200 μM with 2% DMSO (v/v). Verapamil was added as a control. The pre-coated PAMPA plate system was warmed to room temperature, and the donor plate (bottom) was filled with 300 μL of the diluted sample solution while the acceptor plate (top) was filled with 200 μL of the buffer. […] The permeability of each compound was calculated using the formula:
• CD (t)=compound concentration in donor well at time t. • CA (t)=compound concentration in acceptor well at time t. • VD=donor well volume • VA=acceptor well volume • A=filter area • t=incubation time
(The PAMPA barrier holds no transporters, so it reflects passive diffusion.)

The subject of data set [2] is cellular α-N-terminal methylation level in HCT116 cells. The experiment in a line: Cellular N-terminal methylation assay (Western blot, anti-me3-SPK). In kind it is cell-based, human. The conditions noted are these: for IC50: Homo sapiens, HCT-116, HCT116 cells, Western blot, n = 2. Here is the method: FIGS. 4A-4C. Cellular N-terminal methylation assay of GD562 (1d), GD564 (1f), and GD573 (1e) in HCT116 cells. Representative Western blot results of the effects of GD562 (0-300 μM) on the cellular methylation level (n=2) (FIG. 4A). Representative Western blot results of the effects of GD564 (0-100 μM) on the cellular methylation level (n=2) (FIG. 4B). Representative Western blot results of the effects of GD573 (0-300 μM) on the cellular methylation level (n=2) (FIG. 4C). Image quantification was done using ImageJ software (NIH).
Cellular N-methylation level. […] The membrane was then blocked for 1 hour in 5% milk TBST solution and washed with 1×TBST solution three times. […] Image quantification was done using ImageJ software (NIH).
(A western blot detects proteins with antibodies after separation by electrophoresis.)

The test system of data set [3] is panel of 41 methyltransferases. To be noted: among a panel of 41 methyltransferases; cited from earlier work.
Data set [4] has as its target T1, NTMT1. To be noted: cited from earlier work.
Data set [5] has as its system me3-RCC1. To be noted: cited from earlier work.
Data set [6] concerns me3-SET. The conditions noted are these: at 300 μM in HCT116 cells, previously reported; cited from earlier work.
Data set [7] relates to me3-RCC1. The experiment in a line: Cellular N-terminal methylation assay, me3-RCC1. To be noted: HCT116 cells; for IC50: Homo sapiens, HCT-116. Format: cell-based, human. How it is done: (§1) . Representative Western blot results of the effects of GD562 (0-300 μM) on the cellular methylation level (n=2) (FIG. 4A). Representative Western blot results of the effects of GD564 (0-100 μM) on the cellular methylation level (n=2) (FIG. 4B). Representative Western blot results of the effects of GD573 (0-300 μM) on the cellular methylation level (n=2) (FIG. 4C). Image quantification was done using ImageJ software (NIH).
(§2) […]. Cellular N-methylation level. […] The membrane was then blocked for 1 hour in 5% milk TBST solution and washed with 1×TBST solution three times. […] Image quantification was done using ImageJ software (NIH).

Data set [8] concerns me3-SET. Briefly: Cellular N-terminal methylation assay, me3-SET. Format: cell-based. The conditions noted are these: Homo sapiens, HCT-116, HCT116 cells. Here is the method: as §1, §2
[9] abbreviates: recombinant NTMT1, n = 2, mean ± SD.

By IC50 is commonly meant the concentration needed to halve the response being measured. As a reminder, the GI50 is the concentration that inhibits growth by half. Regarding `NCCCC[C@H](NC(=O)[C@@H]1CCCN1C(=O)Cc1cccc2ccccc12)C(=O)Nc1cccc(Br)c1` [Compound 1a], the IC50 at NTMT1 [1] (setting [9]) amounted to 0.17 ± 0.008 µM. Besides, the concentration for 50% growth inhibition (GI50) with HCT116 cells lay in the range of 48 to 135 µM.

As usually defined, the Papp is a coefficient for how fast a substance crosses the barrier. Read a low Papp as slow passage. Take `NCCCC[C@H](NC(=O)[C@@H]1CCCN1C(=O)Cc1cccc2ccccc12)C(=O)NCCc1cccc(-c2ccccc2)c1` [Compound 1k]: in the data set “in vitro”, the Papp at 5 h, 200 μM is 1.3 ×10⁻⁶ cm/s and the Permeability entry is recorded as “±0.4 10^−6 cm/s”. In addition, the 50% inhibitory concentration (IC50) on NTMT1 [1] (setting [9]) came out at 0.69 ± 0.08 µM. The GI50 with HCT116 cells was in the range of 48 to 135 µM.

With `NCCCC[C@H](NC(=O)[C@@H]1CCCN1C(=O)Cc1cccc2ccccc12)C(=O)NCCCc1ccccc1` [Compound 1e], the apparent permeability coefficient (Papp) at 5 h, 200 μM in the data set “in vitro” worked out at 0.17 ± 0.08 ×10⁻⁶ cm/s. Besides, the IC50 at NTMT1 [1] (setting [9]) was 0.65 ± 0.01 µM; in [2], about 100 µM. The same compound showed a concentration for 50% growth inhibition (GI50) in the data set with HCT116 cells of over 300 µM.

`NCCCC[C@H](NC(=O)[C@@H]1CCCN1C(=O)Cc1cccc2ccccc12)C(=O)NCc1ccc(Br)cc1` [Compound 1h] registered a Papp at 5 h, 200 μM in “in vitro” of 0.9 ± 0.2 ×10⁻⁶ cm/s. The half-maximal inhibitory concentration (IC50) at NTMT1 [1] (setting [9]) is 0.82 ± 0.07 µM; in data set [2] it was under 300 µM.

For the compound `NCCCC[C@H](NC(=O)[C@@H]1CCCN1C(=O)Cc1ccc(O)cc1)C(=O)N[C@@H](CCCN=C(N)N)C(N)=O` [BM30], in [3], the “Selectivity for NTMT1/2” value was “over 100 fold”. Besides, the half-inhibitory concentration (IC50) on NTMT1 [4] (previously reported inhibitors) was 0.89 ± 0.1 µM.

As to `NCCCC[C@H](NC(=O)[C@@H]1CCCN1C(=O)Cc1cccc2ccccc12)C(=O)NCC1CCCCC1` [Compound 1f], in the data set “in vitro”, the apparent permeability coefficient (Papp) at 5 h, 200 μM is 0.47 ×10⁻⁶ cm/s. In addition, the half-maximal inhibitory concentration (IC50) on NTMT1 [1] (setting [9]) was 0.94 ± 0.03 µM; in data set [2], about 100 µM. The compound also gave a GI50 with HCT116 cells of over 300 µM.

`NCCCC[C@H](NC(=O)[C@@H]1CCCN1C(=O)Cc1cccc2ccccc12)C(=O)NCc1cccc(Br)c1` [Compound 1g] yielded an apparent permeability coefficient (Papp) at 5 h, 200 μM in “in vitro” of 0.6 ± 0.1 ×10⁻⁶ cm/s. The half-maximal inhibitory concentration (IC50) was 0.58 ± 0.03 µM on NTMT1 [1] (setting [9]) and under 300 µM in [2].

`NCCCC[C@H](NC(=O)[C@@H]1CCCN1C(=O)Cc1cccc2ccccc12)C(=O)NCCc1ccc(-c2ccccc2)cc1` [Compound 1j]: the Papp at 5 h, 200 μM in the data set “in vitro” was 0.9 ×10⁻⁶ cm/s. For the same compound, the IC50 against NTMT1 [1] stood at 2.5 ± 0.09 µM.

Take `NCCCC[C@H](NC(=O)[C@@H]1CCCN1C(=O)Cc1cccc2ccccc12)C(=O)Nc1ccccc1C(N)=O` [DC541]: the half-maximal inhibitory concentration (IC50) is about 100 µM in the data set with me3-RCC1 [5] (HCT116, previously reported, read-out: Cellular IC50 on the me3-RCC1 level) and 0.34 ± 0.03 µM on NTMT1 [1] (setting [9]). In the data set on me3-RCC1 [5], the “Enhancement of cellular inhibition compared to DC113” value is recorded as “about 10 fold”. In addition, the “IC50/IC50 (DC541)” value on NTMT1 [1] (ratio of NTMT1 IC50 to that of DC541) came to 1.0. The “Inhibition of me3-SET level” value with me3-SET [6] is reported as “did not show any inhibition”. Besides, the “Decrease in inhibitory activity on recombinant NTMT1 compared to DC113” value on NTMT1 [4] was about 3 fold.

For the compound `NCCCC[C@H](NC(=O)[C@@H]1CCCN1C(=O)Cc1cccc2ccccc12)C(=O)NCc1ccccc1` [Compound 1c], in the data set “in vitro”, the Papp at 5 h, 200 μM was found to be 0.24 ± 0.06 ×10⁻⁶ cm/s. The IC50 at NTMT1 [1] (setting [9]) is 0.91 ± 0.03 µM; in data set [2] it was under 300 µM. Further, in the data set with HCT116 cells, the GI50 is over 300 µM.

For `NCCCC[C@H](NC(=O)[C@@H]1CCCN1C(=O)Cc1cccc2ccccc12)C(=O)Nc1ccc(Br)cc1` [Compound 1b], at NTMT1 [1] (setting [9]), the IC50 is 0.18 ± 0.007 µM. In addition, the GI50 in the data set with HCT116 cells lay within 48 to 135 µM.

The compound `NCCCC[C@H](NC(=O)[C@@H]1CCCN1C(=O)Cc1cccc2ccccc12)C(=O)NCCc1ccccc1` [Compound 1d] yielded an apparent permeability coefficient (Papp) at 5 h, 200 μM in the data set “in vitro” of 0.26 ± 0.06 ×10⁻⁶ cm/s. Besides, the “Increase in cellular inhibition activity on me3-RCC1 compared to DC541” value with me3-RCC1 [7] is given as “over 2 fold”. The half-inhibitory concentration (IC50) (with me3-RCC1 [7] (read-out: Cellular IC50 on N-terminal methylation of RCC1); with me3-RCC1 [7] (read-out: Cellular IC50 on me3-RCC1); with me3-SET [8] (read-out: Cellular IC50 on N-terminal methylation of SET); in the data set with me3-SET [8] (read-out: Cellular IC50 on me3-SET); in [2]) was about 50 µM in each case. The “Difference between enzymatic and cellular IC50 values” in data set [2] is reported as about 50 fold. Moreover, the GI50 with HCT116 cells was over 300 µM.
